{"source": "patent US6765127B1", "about": "“Invertebrate intestinal mucin cDNA and related products and methods” (Boyce Thompson Institute for Plant Research, Inc., priority 1998, dated 2004)", "key": {"T. ni PMs": {"system": "T. ni PMs", "assay": "Extraction of chitin binding proteins from dissected PMs with Calcofluor", "text": "(§1) Calcofluor is a fluorescent dye with high chitin binding affinity. It has been utilized in studies on the formation of fungi and algal cell walls which are protective structures containing chitin and proteins. Calcofluor interferes with the cell wall formation by binding to nascent chitin molecules during cell wall formation, thus blocking chitin fibril assembly. Similar investigations on insect midgut chitin fibril formation using the chitin binding agent Calcofluor had not been approached until our recent studies were carried out. […] These isolated proteins have high chitin binding properties and are normally not extractable from fully formed PMs by detergents or extreme pH conditions. […] We believe that this phenomenon is due to the disruption of chitin fibril formation by the binding of Calcofluor to nascent chitin molecules as observed in other organisms."}, "T. ni larvae [1]": {"system": "T. ni larvae", "assay": "PM formation in larvae fed Calcofluor", "type": "in vivo", "settings": "Calcofluor fed to T. ni larvae", "text": "as §1"}, "Lymantria dispar": {"system": "Lymantria dispar", "assay": "PM formation with Calcofluor", "type": "in vivo"}, "Pseudaletia unipuncta": {"system": "Pseudaletia unipuncta", "assay": "PM formation with Calcofluor", "type": "in vivo"}, "Helicoverpa zea": {"system": "Helicoverpa zea", "assay": "PM formation with Calcofluor", "type": "in vivo"}, "Hyphantria cunea": {"system": "Hyphantria cunea", "assay": "PM formation with Calcofluor", "type": "in vivo"}, "T. ni larvae [2]": {"system": "T. ni larvae", "assay": "Feeding T. ni larvae artificial diet containing Calcofluor", "type": "in vivo", "settings": "artificial diet containing 1% Calcofluor"}, "T. ni larvae [3]": {"system": "T. ni larvae", "assay": "Baculovirus infection of Calcofluor treated larvae", "type": "in vivo", "settings": "Calcofluor disrupted PM formation"}, "TnGV enhancin": {"biological_target": "TnGV enhancin (Trichoplusia ni granulosis virus, UniProt P29998)", "sequence (P29998 whole entry)": "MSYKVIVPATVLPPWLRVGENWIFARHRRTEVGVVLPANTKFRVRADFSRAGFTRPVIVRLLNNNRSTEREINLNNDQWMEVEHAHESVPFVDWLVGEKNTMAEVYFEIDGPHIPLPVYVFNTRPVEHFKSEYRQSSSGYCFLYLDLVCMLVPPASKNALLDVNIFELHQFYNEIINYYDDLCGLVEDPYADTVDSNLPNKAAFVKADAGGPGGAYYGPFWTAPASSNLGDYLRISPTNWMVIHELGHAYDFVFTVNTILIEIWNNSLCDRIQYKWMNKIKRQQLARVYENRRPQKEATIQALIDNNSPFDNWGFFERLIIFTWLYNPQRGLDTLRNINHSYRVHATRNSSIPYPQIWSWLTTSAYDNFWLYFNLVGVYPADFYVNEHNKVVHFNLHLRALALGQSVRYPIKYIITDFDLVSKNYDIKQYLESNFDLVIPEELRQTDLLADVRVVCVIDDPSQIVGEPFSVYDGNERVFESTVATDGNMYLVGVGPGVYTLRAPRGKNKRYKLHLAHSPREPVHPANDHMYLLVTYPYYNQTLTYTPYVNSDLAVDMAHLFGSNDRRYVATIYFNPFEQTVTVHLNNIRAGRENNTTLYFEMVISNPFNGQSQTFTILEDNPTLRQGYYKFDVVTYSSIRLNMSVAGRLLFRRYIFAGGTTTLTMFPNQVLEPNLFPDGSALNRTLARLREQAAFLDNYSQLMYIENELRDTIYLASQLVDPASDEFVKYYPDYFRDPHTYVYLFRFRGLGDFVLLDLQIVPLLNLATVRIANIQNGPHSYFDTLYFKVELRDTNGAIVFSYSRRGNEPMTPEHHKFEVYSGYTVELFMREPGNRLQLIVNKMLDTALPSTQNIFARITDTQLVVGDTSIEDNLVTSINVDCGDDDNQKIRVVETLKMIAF", "settings": "10 mM EDTA in incubation buffer", "procedure": "The degradation of IIM was examined by SDS/PAGE analysis. A parallel treatment of IIM without enhancin was included as a control. […] To confirm the metalloprotease nature of enhancin, IIM was incubated with TnGV enhancin in the presence of 10 mM EDTA."}, "[4]": {"system": "endogenous midgut proteases", "assay": "Resistance of IIM in PMs to endogenous digestive proteases", "design": "species or system T. ni", "text": "The stability of the IIM when exposed to degestive enzymes for long periods is aided by the O-linked carbohydrate moieties found in associated glycoproteins. […] Control treatments using PMS with inactivated or inhibited endogenous midgut proteases, confirmed that the degradation of IIM in the presence of O-glycosidase was a result of hydrolysis by endogenous digestive proteases, following removal of the protective carbohydrate moiety, galactose β(1-3) N-acetylgalactosamine."}, "[5]": {"system": "T1, invertebrate intestinal mucin (IIM) from Trichoplusia ni peritrophic membranes (native protein)", "T1 sequence": "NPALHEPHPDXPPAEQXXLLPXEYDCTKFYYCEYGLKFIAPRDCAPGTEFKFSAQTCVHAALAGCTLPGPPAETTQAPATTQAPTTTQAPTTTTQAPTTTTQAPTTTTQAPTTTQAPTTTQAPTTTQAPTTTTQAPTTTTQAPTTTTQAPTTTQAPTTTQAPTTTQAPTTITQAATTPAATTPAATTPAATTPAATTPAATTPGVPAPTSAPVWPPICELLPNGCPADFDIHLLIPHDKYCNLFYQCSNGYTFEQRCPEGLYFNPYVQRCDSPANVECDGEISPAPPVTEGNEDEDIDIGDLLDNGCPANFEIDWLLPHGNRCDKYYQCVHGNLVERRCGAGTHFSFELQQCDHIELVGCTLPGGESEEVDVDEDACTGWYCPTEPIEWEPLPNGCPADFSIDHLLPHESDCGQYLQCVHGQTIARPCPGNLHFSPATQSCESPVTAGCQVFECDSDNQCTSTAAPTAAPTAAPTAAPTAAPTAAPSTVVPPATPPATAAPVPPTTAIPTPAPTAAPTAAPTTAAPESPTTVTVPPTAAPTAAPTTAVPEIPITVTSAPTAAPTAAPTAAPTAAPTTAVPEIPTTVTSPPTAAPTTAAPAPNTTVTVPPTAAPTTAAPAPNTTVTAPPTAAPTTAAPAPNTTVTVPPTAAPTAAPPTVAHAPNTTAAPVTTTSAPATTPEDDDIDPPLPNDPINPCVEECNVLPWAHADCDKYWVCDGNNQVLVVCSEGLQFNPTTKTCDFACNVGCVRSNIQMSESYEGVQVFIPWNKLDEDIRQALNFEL"}, "[6]": {"system": "mucin isolated from Pseudaletia unipuncta peritrophic membranes"}}}
{"molecule": "O=S(=O)([O-])c1cc(Nc2nc(Nc3ccccc3)nc(N(CCO)CCO)n2)ccc1C=Cc1ccc(Nc2nc(Nc3ccccc3)nc(N(CCO)CCO)n2)cc1S(=O)(=O)[O-].[Na+].[Na+]", "note": "[Calcofluor]", "values": [{"measurement": "extraction of chitin binding proteins from dissected PMs", "setting": "T. ni PMs", "value": "extract and solubilize chitin binding proteins"}, {"measurement": "PM formation", "setting": "T. ni larvae [1]", "value": "completely inhibited and/or disrupted PM formation"}, {"measurement": "PM disruption/inhibition", "setting": "Lymantria dispar", "value": "further verified"}, {"measurement": "PM disruption/inhibition", "setting": "Pseudaletia unipuncta", "value": "further verified"}, {"measurement": "PM disruption/inhibition", "setting": "Helicoverpa zea", "value": "further verified"}, {"measurement": "PM disruption/inhibition", "setting": "Hyphantria cunea", "value": "further verified"}, {"measurement": "insect mortality", "setting": "T. ni larvae [2]", "value": "insect mortality"}, {"measurement": "larval growth", "setting": "T. ni larvae [2]", "value": "significantly slowed the growth"}, {"measurement": "baculovirus infections in the larvae", "setting": "T. ni larvae [3]", "value": "significantly increased baculovirus infections"}]}
{"molecule": "O=C(O)CN(CCN(CC(=O)O)CC(=O)O)CC(=O)O", "note": "[EDTA]", "values": [{"measurement": "effect on digestion of IIM by TnGV enhancin", "setting": "TnGV enhancin", "value": "blocked the digestion of the IIM"}]}
{"molecule": "IIM: novel invertebrate intestinal mucin from T. ni peritrophic membranes; isoforms IIM14 and IIM22", "values": [{"measurement": "degradation of IIM in PMs by endogenous digestive proteases", "setting": "[4]; in the presence of O-glycosidase", "value": "quickly degraded"}, {"measurement": "degradation of IIM in PMs by endogenous digestive proteases", "setting": "[4]; sixteen hour incubation", "value": "no degradation"}]}
{"molecule": "Trichoplusia ni granulosis virus (TnGV) enhancin", "values": [{"measurement": "degradation of IIM examined by SDS/PAGE (in vitro, 1.25 µg/ml enhancin, 37° C., 3 hours or overnight)", "setting": "[5]", "value": "Incubation of IIM with TnGV enhancin showed that the enhancin had activity against IIM."}, {"measurement": "digestion of IIM in the presence of 10 mM EDTA", "setting": "[5]", "value": "The addition of 10 mM EDTA to the incubation buffer blocked the digestion of the IIM and confirmed the metalloprotease nature of enhancin."}, {"measurement": "degradation of the mucin", "setting": "[6]", "value": "This mucin is also degraded by the TnGV enhancin"}]}
